Reference: US9144556B2, “Composition for promoting lipolysis” (LION CORPORATION, priority 2011, dated 2015)

Tested on: rat mesenteric adipocytes
Assay: Rate of promoting lipolysis (glycerol quantification in culture supernatant of rat mesenteric adipocytes)
Assay type: cell-based
Conditions: for Rate of promoting lipolysis (combined preparation (+ lactoferrin 10 ppm)) / Rate of promoting lipolysis (combined preparation (+ lactoferrin 30 ppm)) / Rate of promoting lipolysis (single preparation): 48 hours, additive free group = 0%; for Rate of promoting lipolysis (single preparation): relative glycerol amount; for Rate of promoting lipolysis of the combination compared with the value obtained by adding the rates of the single preparations (synergy): combined preparation versus sum of single preparations at corresponding concentration
Description: Promoting the breakdown of the fat by the composition for promoting the lipolysis of the present invention can be confirmed, for example, by conducting Examples. That is, a sample is added to a precursor adipocyte prepared from rat mesenteric tissue, and glycerol is quantified. A commercially available kit such as F-Kit Glycerol (supplied from Roche, product number: 14820) may be used for the quantification. When the amount of obtained glycerol is larger than the amount of glycerol when the sample was not added, it can be confirmed that the lipolysis was promoted.
Two SD rats (male, 10 weeks of age, Japan SLC, Inc.) were used. The rats were euthanized under anesthesia with ether and anatomized, and mesenteric adipose tissue was removed. The obtained tissue was placed in a sterilized petri dish, immersed in ice-cold saline (Otsuka Normal Saline, supplied from Otsuka Pharmaceutical Co., Ltd.) containing 1% antibiotic (Antibiotic-Antimycotic Stabilized, supplied from Sigma, A5955), and washed to remove blood and hairs, particularly lymphocytes (washed several times with different saline until no hair was visible). The tissue was cut using ophthalmic scissors (cut 25 times per 1 g of the tissue), and dispersed by stirring every several minutes in a PBS solution containing 1 mg/mL of collagenase (Collagenase S-1 derived from Actinomycetes, supplied from Nitta Gelatin Inc.) at 37° C. for 40 minutes. Roughly, the tissue from one rat was treated with 20 mL of the collagenase solution.
The tissue suspension was filtrated through a cell strainer with a pore size of 100 μm (REF352360 supplied from BD Falcon). Subsequently, a viscosity of the suspension was reduced by adding 20 mL of DMEM (Dulbecco's Modified Eagle's Medium-high glucose, D5796 supplied from Sigma), and then the suspension was centrifuged at 800 rpm for 10 minutes. An oil layer in an upper layer was removed using an aspirator, and then, the resulting suspension was resuspended and filtrated through a cell strainer with a pore size of 70 μm (REF352350 supplied from BD Falcon). After centrifuging at 800 rpm for 15 minutes, it was confirmed that there was no suspended cell in a supernatant, the presence of a pellet was confirmed, and then the supernatant was removed. The pellet was suspended in 5 mL of DMEM (serum free), the suspension was centrifuged at 800 rpm for 15 minutes, and then the supernatant was removed.
The resulting pellet was gently suspended in 5 mL of a medium for visceral adipocyte differentiation (Visceral Adipocyte Culture Medium, 250 mL, code: VACMR supplied from Primary Cell Co., Ltd.). The suspension was diluted to 10 times, and the number of cells was counted and was 1.015×10^7 cells/mL. 2.54×10^7 cells could be recovered from one rat. The cells suspended in the medium were placed so as to be at 6×10^6 cells/24-wells and 500 μL/well, and their cultivation was started. On the following day, 500 μL of the medium was added, and subsequently the medium was changed every third day. […]. On the 6th day after the start of the cultivation, the medium was changed to a medium containing each sample. A culture supernatant was collected 48 hours after adding the sample, and the cultivation was terminated. It was visually confirmed that there was no cytotoxicity in all of the cultivations.
A concentration of lactoferrin was adjusted to 30 ppm or 10 ppm, and lactoferrin at each concentration was used as the sample for evaluating the effect of lactoferrin alone (Comparative Experimental example 1). Each ingredient other than lactoferrin was used as the sample for evaluating the effect of a single preparation alone as follows. Lactoferrin and each ingredient other than lactoferrin were adjusted to the following concentrations and mixed to use as the sample for evaluating the effect of a combined preparation (Experimental Examples 1 to 9 and Comparative Experimental Examples 2 to 4). […]

[1] = ingredient 10 ppm + lactoferrin 10 ppm
[2] = ingredient 10 ppm + lactoferrin 30 ppm
[3] = ingredient 30 ppm + lactoferrin 10 ppm
[4] = ingredient 30 ppm + lactoferrin 30 ppm

Compound	Rate of promoting lipolysis (combined preparation (+ lactoferrin 10 ppm)) [1]	Rate of promoting lipolysis (combined preparation (+ lactoferrin 10 ppm)) (ingredient 10 ppm + lactoferrin 10 ppm, listed as raspberry ketone)	Rate of promoting lipolysis (combined preparation (+ lactoferrin 30 ppm)) [2]	Rate of promoting lipolysis (single preparation) (ingredient 10 ppm alone)	Rate of promoting lipolysis (single preparation) (ingredient 10 ppm alone, listed as raspberry ketone)	Rate of promoting lipolysis (combined preparation (+ lactoferrin 10 ppm)) [3]	Rate of promoting lipolysis (combined preparation (+ lactoferrin 30 ppm)) [4]	Rate of promoting lipolysis (single preparation) (ingredient 30 ppm alone)	Rate of promoting lipolysis of the combination compared with the value obtained by adding the rates of the single preparations (synergy)
CC(=O)CCc1ccc(O)cc1 [Raspberry ketone, 4-(4-hydroxyphenyl)-2-butanone]	22%	more excellent effect of promoting the lipolysis than in the case of lactoferrin 10 ppm alone	57%	−2%	rather inhibited the lipolysis	34%	70%	10%	
O=C(O[C@@H]1Cc2c(O)cc(O)cc2O[C@@H]1c1cc(O)c(O)c(O)c1)c1cc(O)c(O)c(O)c1 [Epigallocatechin gallate, epigallocatechin gallate]	11%		21%	−6%		13%	24%	3%	No prominently synergistic effect
O=C(/C=C/c1ccc(O)c(O)c1)O[C@@H]1C[C@](O)(C(=O)O)C[C@@H](O)[C@H]1O [Chlorogenic acid, chlorogenic acid]	12%		20%	3%		14%	22%	5%	No prominently synergistic effect
Lactoferrin				12.1%				21.3%	
